Measurements from patent US20220023323A1, “RESETTING BIOLOGICAL PATHWAYS FOR DEFENDING AGAINST AND REPAIRING DETERIORATION FROM HUMAN AGING” (priority 2015, published 2022).

Tests used:
Sirtuins = conditions: most Sirtuins; cited from earlier work
PARP-1 = PARP-1 (Homo sapiens, UniProt P09874); conditions: cited from earlier work
[1] = cited from earlier work
[2] = no light and no contaminants in deionized/distilled H2O; cited from earlier work
Sirt1 = Sirt1 (Homo sapiens, UniProt Q96EB6); conditions: cited from earlier work
Chain of Sirt1 (Q96EB6 whole entry): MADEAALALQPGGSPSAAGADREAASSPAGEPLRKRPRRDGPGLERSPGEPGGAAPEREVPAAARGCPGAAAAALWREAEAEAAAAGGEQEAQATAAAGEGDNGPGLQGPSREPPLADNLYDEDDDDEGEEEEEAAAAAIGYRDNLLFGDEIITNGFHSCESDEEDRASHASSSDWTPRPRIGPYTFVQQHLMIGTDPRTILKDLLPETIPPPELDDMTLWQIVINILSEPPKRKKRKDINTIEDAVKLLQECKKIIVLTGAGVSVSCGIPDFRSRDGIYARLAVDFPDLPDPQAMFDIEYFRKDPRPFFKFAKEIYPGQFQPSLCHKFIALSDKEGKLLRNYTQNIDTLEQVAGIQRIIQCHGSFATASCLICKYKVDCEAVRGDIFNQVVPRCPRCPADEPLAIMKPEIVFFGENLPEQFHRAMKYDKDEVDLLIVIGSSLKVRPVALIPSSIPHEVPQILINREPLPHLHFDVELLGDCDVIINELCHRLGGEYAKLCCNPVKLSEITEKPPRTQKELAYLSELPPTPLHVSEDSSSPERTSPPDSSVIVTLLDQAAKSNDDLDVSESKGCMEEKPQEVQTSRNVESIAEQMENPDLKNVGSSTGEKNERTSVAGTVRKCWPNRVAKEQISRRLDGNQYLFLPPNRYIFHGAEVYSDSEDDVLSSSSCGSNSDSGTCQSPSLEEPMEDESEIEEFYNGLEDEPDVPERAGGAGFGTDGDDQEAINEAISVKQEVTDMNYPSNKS

[3] = estimated; cited from earlier work
[4] = cited from earlier work; remark: listed apart in the source
[5] = cited from earlier work; remark: listed apart in the source
CD38 = target: T1, CD38 (Homo sapiens, UniProt P28907); conditions: CD38 substrate; cited from earlier work
T1 sequence (P28907 1-300): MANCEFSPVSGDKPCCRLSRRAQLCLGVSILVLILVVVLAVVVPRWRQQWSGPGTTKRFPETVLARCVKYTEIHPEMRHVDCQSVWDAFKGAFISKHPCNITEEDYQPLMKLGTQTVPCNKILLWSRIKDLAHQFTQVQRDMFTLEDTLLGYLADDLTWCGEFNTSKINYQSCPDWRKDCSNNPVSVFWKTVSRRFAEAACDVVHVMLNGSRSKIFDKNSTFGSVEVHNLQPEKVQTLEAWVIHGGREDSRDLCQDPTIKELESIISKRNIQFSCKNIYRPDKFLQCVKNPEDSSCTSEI

Interleukin-6 = test: LabCor monthly serum marker testing: Interleukin-6; type: in vivo, human; conditions: person, oral twice daily, study month 3: NMN alone, 3rd month, baseline 1.3
Description: (§1) A person weighing 88 kg at the beginning of the treatment was treated with a regimine of category 1, category 2, and category 3 molecules as noted below.
(§2) The amounts of each composition were set so that by the subject drinking the full 500 mL a final dosage approximately 1.19×10^−4 moles NMN/kg body weight per dose, 2.91×10^−4 moles betaine/kg body weight per dose, 1.17×10^−5 moles of H2O2/kg of body weight per dose, and 1.51×10^−6 moles cf NaSH/kg of body weight per dose was given to the subject through drinking the 500 mL solution.
(§3) By taking two similar dosages per day, the sum of the two daily equal allotments was • Nicotinamide Mononucleotide (NMN) dosage−2.38×10^−4 moles/Kg body weight/day • The betaine dosage−5.82×10^−4 moles/Kg body weight/day • The Hydrogen Peroxide (H2O2) dosage−2.34×10^−5 moles/Kg body weight/day • The Sodium Hydrogen Sulfide (NaSH) dosage−3.02×10^−6 moles/Kg body weight/day
(§4) The subject self-administered the formulations orally through drinking the solution at approximately 7AM and 7 PM each day. These times were chosen because they approximated the subjects' biological clock peaks of NAD+ as determined by Ramsey K 2009. This had the effect of pulsing the ingredients into the body twice a day. approximately timed with the biological clock of the subject.
LabCor Inc. performed the marker testing using standard protocols on a monthly basis. […]

C-Reactive Protein = test: LabCor monthly serum marker testing: C-Reactive Protein; type: in vivo, human; conditions: for C-Reactive Protein: serum, person, oral twice daily, baseline 2.77
Description: The amounts of each composition were set so that by the subject drinking the full 500 mL a final dosage approximately 1.19×10^−4 moles NMN/kg body weight per dose, […] through drinking the 500 mL solution. […]
as §4
(§5) LabCor Inc. performed the marker testing using standard protocols on a monthly basis. Blood draw times ranged between 8:19 am and 8:54 am. Inflammatory measurements are correlated to the biological clock. LabCor tested levels of CMV IgG, C-Reactive Protein, Tumor Necrosis Factor-Alpha, and Interleukin-6 in Serum.

[6] = tested on: Tumor Necrosis Factor-Alpha; test: LabCor monthly serum marker testing: Tumor Necrosis Factor-Alpha; type: in vivo, human; conditions: person, oral twice daily, baseline 1.1
Description: The amounts of each composition were set so that by the […] given to the subject through drinking the 500 mL solution. […]
as §4, §5

[7] = NMN given to mice; cited from earlier work
Inflammation Score = Inflammation Score (sum of the markers) and aging prediction after Arai 2015; type: in vivo, human; conditions: person, baseline 5.17
Source text: Inflammation markers can be analyzed for aging including those markers found in the study by Arai in 2015. Aria found inflammation markers that were predictive of who would continue to live (life-span) and who would be physically and cognitively healthy (health-span). The markers used were CMV IgG, IL-6, TNF-alpha and CRP.
as §5
In the baseline condition for the subject, both C-reactive Protein (2.77 mg/L) and Interleukin-6 (1.3 pg/m14 measurements were above the “unrelated family” level (0.7 mg/l and 1.13 pg/mL) (Arai Y 2015, Table 1) as well as the “offspring” level (0.7 mg/l and 1.03 pg/mL) (Arai Y. 2015, Table 1) respectively. The […] subject of this study has a similar age to the “offspring” group and the “unrelated family” group of Arai. These two inflammation test scores effect the prediction algorithm to predict a worse aging outcome for the subject than the “offspring” or “unrelated family” groups of Arai at baseline.

CMV IgG = test: LabCor monthly serum marker testing: CMV IgG; type: in vivo, human; conditions: person, oral twice daily
Description: as §1
Typical final concentrations of NMN taken by subject were 3.5 grams in 500 mL H2O, betaine were 3 grams in 500 mL H2O, H2O2 were (2 drops of 35% concentration in 500 mL H2O), and NaSH were (drops of 2 at 66 uM per drop concentration in 500 mL H2O).
as §2, §3, §4, §5

[8] = study month 2: NMN alone, 2nd month
[9] = study month 3: NMN alone, 3rd month
[10] = study month 1: NMN alone, 1st month

Chain of PARP-1 (P09874 whole entry): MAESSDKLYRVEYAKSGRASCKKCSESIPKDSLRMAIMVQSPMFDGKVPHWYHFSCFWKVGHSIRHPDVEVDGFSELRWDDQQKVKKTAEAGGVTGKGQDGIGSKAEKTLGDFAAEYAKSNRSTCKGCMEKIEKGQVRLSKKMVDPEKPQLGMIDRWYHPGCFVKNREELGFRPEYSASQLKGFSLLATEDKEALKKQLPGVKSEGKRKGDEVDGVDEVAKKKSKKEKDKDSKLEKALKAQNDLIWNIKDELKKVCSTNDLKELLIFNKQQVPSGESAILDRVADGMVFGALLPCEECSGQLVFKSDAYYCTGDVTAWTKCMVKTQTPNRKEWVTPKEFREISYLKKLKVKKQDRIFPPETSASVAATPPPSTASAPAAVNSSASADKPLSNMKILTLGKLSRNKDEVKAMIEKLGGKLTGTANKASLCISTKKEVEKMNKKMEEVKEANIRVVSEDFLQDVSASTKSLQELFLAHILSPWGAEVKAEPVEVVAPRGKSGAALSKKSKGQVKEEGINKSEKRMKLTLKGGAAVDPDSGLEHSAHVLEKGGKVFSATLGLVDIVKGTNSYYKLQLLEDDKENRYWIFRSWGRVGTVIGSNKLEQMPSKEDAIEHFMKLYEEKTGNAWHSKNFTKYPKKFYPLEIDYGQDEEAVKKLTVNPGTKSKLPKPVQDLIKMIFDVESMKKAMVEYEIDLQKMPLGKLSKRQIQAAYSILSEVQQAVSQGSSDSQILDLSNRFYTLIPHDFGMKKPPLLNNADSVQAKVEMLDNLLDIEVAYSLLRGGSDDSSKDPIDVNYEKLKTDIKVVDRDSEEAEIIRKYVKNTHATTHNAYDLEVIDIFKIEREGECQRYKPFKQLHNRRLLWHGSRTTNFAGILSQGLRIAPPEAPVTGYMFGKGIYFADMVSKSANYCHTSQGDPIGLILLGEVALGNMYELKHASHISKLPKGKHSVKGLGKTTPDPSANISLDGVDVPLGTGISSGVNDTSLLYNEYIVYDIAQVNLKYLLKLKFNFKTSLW

NC(=O)c1ccc[n+]([C@@H]2O[C@H](COP(=O)([O-])OP(=O)(O)OC[C@H]3O[C@@H](n4cnc5c(N)ncnc54)[C@H](O)[C@@H]3O)[C@@H](O)[C@H]2O)c1 [NAD+, nicotinamide adenine dinucleotide]
Km (Sirtuins): 100 to 300 µM | Km (PARP-1; PARP-1, substrate NAD+): 20 to 60 µM | Km of PARP-1 lower than Sirtuin-1 (PARP-1; PARP-1 compared to Sirt1): 5 fold | absorption through the digestive system ([1]; in vivo): not absorbed well

OO [H2O2, hydrogen peroxide]
degradation rate [2]: about 10 %/year | extracellular H2O2 inhibition of Sirt1 (Sirt1; extracellular H2O2): 1 µmol | extracellular concentration that inhibits Sirt1 (Sirt1; oxidizing critical cysteine residues in the Sirtuin active center): 1 µM | fraction absorbed by the gut [3]: ~50%

S [NaHS, sodium hydrosulfide]
time to increase of H2S concentration ([4]; H2S donors): within seconds to minutes

C[S+](CC[C@H](N)C(=O)O)C[C@H]1O[C@@H](n2cnc3c(N)ncnc32)[C@H](O)[C@@H]1O (stereo partly drawn) [SAM, S-5′-adenosyl-L-methionine]
fraction that gets into the body when ingested [5]: about 2%

NC(=O)c1ccc[n+]([C@@H]2O[C@H](CO)[C@@H](O)[C@H]2O)c1 [NR, nicotinamide riboside]
reaching muscle ([1]; orally delivered): largely not reach muscle

NC(=O)c1ccc[n+]([C@@H]2O[C@H](COP(=O)([O-])O)[C@@H](O)[C@H]2O)c1 [NMN, Nicotinamide mononucleotide]
kcat relative to that of NAD+ (CD38): 5 fold | Interleukin-6 Serum (Interleukin-6): 0.9 pg/mL | CRP (C-Reactive Protein; after two months of treatment with NMN, subject): 0.43 mg/L | C-Reactive Protein (C-Reactive Protein; [8]): 0.43 mg/L | C-Reactive Protein (C-Reactive Protein; [9]): 0.53 mg/L | Tumor Necrosis Factor-Alpha [6, 10]: 0.9 pg/mL | Tumor Necrosis Factor-Alpha [6, 8]: 1.1 pg/mL | Tumor Necrosis Factor-Alpha [6, 9]: 1.1 pg/mL | time to create NAD+ out of the NMN [7]: 15 min | Inflammation Score (Inflammation Score; [10]): 8.55 | Inflammation Score (Inflammation Score; [8]): 2.23 | Inflammation Score (Inflammation Score; [9]): 2.53 | CMV IgG (CMV IgG; [10]): 0 | CMV IgG (CMV IgG; [8]): 0 | CMV IgG (CMV IgG; [9]): 0

S [H2S, hydrogen sulfide]
half-life ([4]; under in vivo conditions): between seconds and minutes
